US9409893B2, “Heteroaryl derivatives and uses thereof” (Jacobus Pharmaceutical Company, Inc., priority 2012, dated 2016)
pIC50: −log10 of the molar value. Counter-ions that a name gives are not always drawn. Like-named read-outs stand apart in the source and are kept apart here.

Legend:
P. falciparum strain D6 = assay: [3H]-hypoxanthine growth inhibition assay, P. falciparum D6; assay type: cell-based; details: Plasmodium falciparum
Experimental: (§1) The potential for antimalarial activity against Plasmodium falciparum was determined by measuring the incorporation of tritiated hypoxanthine into parasitized red blood cells.
(§2) Stock solutions of the test compounds and the reference drug chloroquine (CQ) (Sigma Chemicals C-6628, Lot #059H0919) were prepared in silanized glass vials with AquaSil™ (Pierce, USA) to minimize absorption of the compounds to glassware. All test compounds were dissolved in DMSO (Sigma Cat No. #D8418) to 1 mM concentration, whereas CQ was dissolved in 50% methanol at a concentration of 1.6 mg/ml (base). Stock solutions were stored at −20° C.
(§3) The P. falciparum laboratory adapted strains utilized in this project (Table 1) were in vitro cultured and routinely maintained in RPMI-1640-LPLF complete medium, which contained low concentrations of para-amino benzoic acid (0.0005 mg/L) and folic acid (0.01 mg/L).
(§4) The low concentration of folic acid in RPMI-1640-LPLF prevents inhibition of the compound if its activity targets the parasite's folate metabolic pathway. Parasites were cultured in human red blood cells (RBCs) in vitro at 37° C. in special gas mixture (5% O2, 5% CO2 and 90% N2) as described Trager and Jensen (1979 Science 193:673-675).
(§5) Base cultivation medium consisted of 10.4 g/L RPMI-1640-LPLF powder (Gibco BRL), 5.97 g/L HEPES buffer (MP Biomedicals, USA), 2.0 g/L D-glucose (BDH chemicals, Australia), 0.05 g/L hypoxanthine (Sigma, USA) and 40 mg/L gentamycin (Pfizer, Australia). The pH of the medium was adjusted to 6.9 and the solution was filtered using 0.2 μm pore size (AcroCap, Gelman Science, USA). Complete medium was prepared by adding sodium bicarbonate solution (final concentration, 0.21%) and drug-free heat-inactivated human plasma, pooled from various blood types, obtained from the Australian Red Cross Blood Service (Brisbane) (final concentration, 10%) to the base RPMI-1640-LPLF. For [^3H]-hypoxanthine inhibition growth assay, RPMI-1640-LPLF complete medium which lacked [^3H]-hypoxanthine ([^3H]-RPMI-1640-LPLF) was used to prevent uptake of hypoxanthine by parasites, as radioactive hypoxanthine uptake is measured as a surrogate marker of growth. All complete medium was used within three days of preparation. See DE (Para) SOP 002 for methodology.
(§6) Red blood cells (RBC) were required for P. falciparum parasites to proliferate in vitro. 0 (Rh+) type blood was obtained from the Australian Red Cross Blood Service. The RBC were washed twice in phosphate-buffered saline (PBS) and once in [^3H]-RPMI-1640-LPLF complete medium by centrifugation at 1,500×g for 5 min. Following the final wash, the haematocrit was measured as the percent of RBC to total culture volume. The haematocrit was adjusted to 50% by removing or adding [^3H]-RPMI-LPLF complete medium. See DE (Para) SOP 003 for methodology.
(§7) All P. falciparum strains were grown in RPMI-1640-LPLF complete medium at 4% haematocrit and 1% to 8% parasitaemia at 37° C. in sealed flasks in a gas mixture of 5% O2, 5% CO2 and 90% N2 (BOC Gases, Brisbane, Australia). For drug susceptibility assays cultures were routinely synchronized when the majority of parasites (>85%) were at early trophozoite (ring) stage. Synchronization involved removing the more mature erythrocytic parasite stages by lysis, resulting in the retention only of early trophozoite (ring) stages. Synchronization was performed by re-suspending the infected red blood cell (iRBC) pellet in 5 to 10 times its volume of 5% D-sorbitol (Bacto Laboratories Pty. Ltd., Australia) for 5 min (Lambros and Vanderberg, 1979 J Parasitol 65: 418-420). The mixture was centrifuged (1,500 rpm for 5 min) and the supernatant removed. The iRBC were washed twice using PBS buffer and once using [^3H]-RPMI-LPLF plain medium. Following synchronization, a new culture was prepared with an initial parasitaemia of 1% in RPMI-LPLF complete medium. See DE (Para) SOP 008 for methodology.

P. falciparum strain W2 = assay: [3H]-hypoxanthine growth inhibition assay, P. falciparum W2; assay type: cell-based; details: Plasmodium falciparum
Experimental: as §1, §2, §3, §4, §5, §6, §7

[1] = P. falciparum D6 (sensitive to chloroquine and pyrimethamine), [3H]-hypoxanthine incorporation, read-out: D6 IC50
[2] = P. falciparum W2 (resistant to chloroquine and pyrimethamine), [3H]-hypoxanthine incorporation, read-out: W2 IC50

Row | pIC50 (P. falciparum strain D6; [1]) | pIC50 (P. falciparum strain W2; [2]) | SMILES | pIC50 (P. falciparum strain D6; D6, read-out: D6 IC50) | pIC50 (P. falciparum strain W2; W2, read-out: W2 IC50)
1 |  |  | CN1CCN(Cc2cc(C(C)(C)C)cc(-c3ccc(C(F)(F)F)nc3)c2O)CC1 [Example 50, 4-(tert-Butyl)-2-((4-methylpiperazin-1-yl)methyl)-6-(6-(trifluoromethyl)pyridin-3-yl)phenol dihydrochloride] | 6.53 | 6.80
2 | 7.34 | 7.62 | CC(C)(C)c1cc(CN2CCCCC2)c(O)c(-c2ccc(C(F)(F)F)nc2)c1 [Example 51, 4-(tert-Butyl)-2-(piperidin-1-ylmethyl)-6-(6-(trifluoromethyl)pyridin-3-yl)phenol hydrochloride] |  | 
3 | 7.64 | 7.85 | CC(C)(C)c1cc(CN2CCCC2)c(O)c(-c2ccc(C(F)(F)F)nc2)c1 [Example 52, 4-(tert-Butyl)-2-(pyrrolidin-1-ylmethyl)-6-(6-(trifluoromethyl)pyridin-3-yl)phenol hydrochloride] |  | 
4 | 5.44 | 5.64 | CC(=O)N1CCN(Cc2cc(C(C)(C)C)cc(-c3ccc(C(F)(F)F)nc3)c2O)CC1 [Example 53, 1-(4-(5-(tert-Butyl)-2-hydroxy-3-(6-(trifluoromethyl)pyridin-3-yl)benzyl)piperazin-1-yl)ethanone hydrochloride] |  | 
5 | 5.20 | 5.21 | CC(C)(C)NCc1cc(C(C)(C)C)cc(-c2ncc(C(F)(F)F)cn2)c1O [Example 54, 4-(tert-Butyl)-2-((tert-butylamino)methyl)-6-(5-(trifluoromethyl)pyrimidin-2-yl)phenol hydrochloride] |  | 
6 | 5.60 | 5.40 | CC(C)(C)NCc1cc(-c2ccc(S(C)(=O)=O)cc2)cc(-c2ccc(C(F)(F)F)nc2)c1O [Example 55, 3-((tert-Butylamino)methyl)-4′-(methylsulfonyl)-5-(6-(trifluoromethyl)pyridin-3-yl)-[1,1′-biphenyl]-4-ol hydrochloride] |  | 
7 | 6.98 | 6.93 | CC(C)(C)NCc1cc(C(C)(C)C)cc(-c2ccc(C(F)(F)F)nn2)c1O [Example 56, 4-(tert-Butyl)-2-((tert-butylamino)methyl)-6-(6-(trifluoromethyl)pyridazin-3-yl)phenol hydrochloride] |  | 
8 | 7.47 | 7.54 | CC(C)(C)c1cc(CNCCC(F)(F)F)c(O)c(-c2ccc(C(F)(F)F)nc2)c1 [Example 57, 4-(tert-Butyl)-2-(6-(trifluoromethyl)pyridin-3-yl)-6-(((3,3,3-trifluoropropyl)amino)methyl)phenol hydrochloride] |  | 
9 |  |  | CCN(CC)CCCC(C)NCc1cc(C(C)(C)C)cc(-c2ccc(C(F)(F)F)nc2)c1O (centres unmarked) [Example 59, 4-(tert-Butyl)-2-(((5-(diethylamino)pentan-2-yl)amino)methyl)-6-(6-(trifluoromethyl)pyridin-3-yl)phenol dihydrochloride] | 7.06 | 7.01
10 |  |  | CC(C)(C)NCCCNCc1cc(C(C)(C)C)cc(-c2ccc(C(F)(F)F)nc2)c1O [Example 60, 4-(tert-Butyl)-2-(((3-(tert-butylamino)propyl)amino)methyl)-6-(6-(trifluoromethyl)pyridin-3-yl)phenol dihydrochloride] | 6.87 | 6.76
11 |  |  | CCN(CC)CCCNCc1cc(C(C)(C)C)cc(-c2ccc(C(F)(F)F)nc2)c1O [Example 61, 4-(tert-Butyl)-2-(((3-(diethylamino)propyl)amino)methyl)-6-(6-(trifluoromethyl)pyridin-3-yl)phenol dihydrochloride] | 7.36 | 7.49
12 |  |  | CC(C)(C)c1cc(CNCCCN)c(O)c(-c2ccc(C(F)(F)F)nc2)c1 [Example 62, 2-(((3-Aminopropyl)amino)methyl)-4-(tert-butyl)-6-(6-(trifluoromethyl)pyridin-3-yl)phenol dihydrochloride] | 6.88 | 6.65
13 |  |  | CCN(CC)CCNCc1cc(C(C)(C)C)cc(-c2ccc(C(F)(F)F)nc2)c1O [Example 63, 4-(tert-Butyl)-2-(((2-(diethylamino)ethyl)amino)methyl)-6-(6-(trifluoromethyl)pyridin-3-yl)phenol dihydrochloride] | 8.05 | 8.15
14 | 6.67 | 6.69 | CC(C)(C)c1cc(CN)c(O)c(-c2ccc(C(F)(F)F)nc2)c1 [Example 64, 2-(Aminomethyl)-4-(tert-butyl)-6-(6-(trifluoromethyl)pyridin-3-yl)phenol hydrochloride] |  | 
15 |  |  | CC(CN)NCc1cc(C(C)(C)C)cc(-c2ccc(C(F)(F)F)nc2)c1O (centres unmarked) [Example 65, 2-(((1-Aminopropan-2-yl)amino)methyl)-4-(tert-butyl)-6-(6-(trifluoromethyl)pyridin-3-yl)phenol dihydrochloride] | 6.40 | 6.68
16 | 7.00 | 7.28 | CC(C)(C)NCc1cc(-c2cccc(F)c2)cc(-c2ccc(C(F)(F)F)nc2)c1O [Example 67, 3-((tert-Butylamino)methyl)-3′-fluoro-5-(6-(trifluoromethyl)pyridin-3-yl)-[1,1′-biphenyl]-4-ol hydrochloride] |  | 
17 | 6.66 | 6.90 | CC(C)(C)NCc1cc(F)cc(-c2ccc(C(F)(F)F)nc2)c1O [Example 68, 2-((tert-Butylamino)methyl)-4-fluoro-6-(6-(trifluoromethyl)pyridin-3-yl)phenol hydrochloride] |  | 
18 | 6.62 | 6.89 | CC(C)(C)NCc1cc(Cl)cc(-c2ccc(C(F)(F)F)nc2)c1O [Example 69, 2-((tert-Butylamino)methyl)-4-chloro-6-(6-(trifluoromethyl)pyridin-3-yl)phenol hydrochloride] |  | 
19 | 4.03 | 4.30 | CC(C)(C)NCc1cc(C#N)cc(-c2ccc(C(F)(F)F)nc2)c1O [Example 71, 3-((tert-Butylamino)methyl)-4-hydroxy-5-(6-(trifluoromethyl)pyridin-3-yl)benzonitrile hydrochloride] |  | 
20 | 3.90 | 4.09 | CC(C)(C)NCc1cc(S(C)(=O)=O)cc(-c2ccc(C(F)(F)F)nc2)c1O [Example 72, 2-((tert-Butylamino)methyl)-4-(methylsulfonyl)-6-(6-(trifluoromethyl)pyridin-3-yl)phenol hydrochloride] |  | 
21 | 5.73 | 5.56 | CC(NC(C)(C)C)c1cc(C(C)(C)C)cc(-c2ccc(C(F)(F)F)nc2)c1O (centres unmarked) [Example 73, 4-(tert-Butyl)-2-(1-(tert-butylamino)ethyl)-6-(6-(trifluoromethyl)pyridin-3-yl)phenol hydrochloride] |  | 
22 | 7.27 | 7.64 | CC(C)(C)NCc1cc(-c2ccc(Cl)cc2)nc(-c2ccc(C(F)(F)F)nc2)c1O [Example 74, 4-((tert-Butylamino)methyl)-6-(4-chlorophenyl)-6′-(trifluoromethyl)-[2,3′-bipyridin]-3-ol 1.1hydrochloride] |  | 
